In PMC9221290, “Alkaloids of Dicranostigma franchetianum (Papaveraceae) and Berberine Derivatives as a New Class of Antimycobacterial Agents” (Biomolecules, 2022):
Values after ≈ are worked out from the molar mass of the structure shown. Where two headings read alike, the source gives them in different places.

Assays:
[1] = system: Mycobacterium kansasii DSM 44162 (ATCC 12478); experiment: Antimycobacterial microdilution broth assay (resazurin), M. kansasii; assay type: cell-based; conditions: 96 h; for MIC: Mycobacterium kansasii, read-out: MIC M. kansasii, microdilution broth, resazurin, 96 h
[2] = system: Mycolicibacterium smegmatis DSM 43465 (ATCC 607); experiment: Antimycobacterial microdilution broth assay (resazurin), M. smegmatis; assay type: cell-based; conditions: 48 h; for MIC: Mycolicibacterium smegmatis, read-out: MIC M. smegmatis, microdilution broth, resazurin, 48 h; for MIC M. smegmatis: microdilution broth, resazurin
[3] = in vitro; conditions: human, % of cell viability compared to control; for viability at 1 µM: HepG2, 1 µM; for viability at 5 µM: HepG2, 5 µM; for viability at 10 µM: HepG2, 10 µM; for viability at 100 µM: HepG2, 100 µM; for viability at 25 µM: HepG2, 25 µM; for viability at 50 µM: HepG2, 50 µM; for viability at 75 µM: HepG2, 75 µM
[4] = system: Mtb H37Ra ITM-M006710 (ATCC 9431); experiment: Antimycobacterial microdilution broth assay (resazurin), Mtb H37Ra; assay type: cell-based, Mycobacterium tuberculosis
[5] = system: HepG2 cells
[6] = system: HepG2 cells; experiment: cells; conditions: Homo sapiens, HepG2, 24 h
[7] = system: Mycolicibacterium aurum DSM 43999 (ATCC 23366); experiment: Antimycobacterial microdilution broth assay (resazurin), M. aurum; assay type: cell-based; conditions: 72 h; for MIC: Mycolicibacterium aurum, read-out: MIC M. aurum, microdilution broth, resazurin, 72 h; for MIC M. aurum: microdilution broth, resazurin
[8] = system: Mycobacterium avium DSM 44156 (ATCC 25291); experiment: Antimycobacterial microdilution broth assay (resazurin), M. avium; assay type: cell-based; conditions: 96 h; for MIC: Mycobacterium avium, read-out: MIC M. avium, microdilution broth, resazurin, 96 h; for MIC M. avium: microdilution broth, resazurin
[9] = Mycobacterium tuberculosis, 120 h, microdilution broth, resazurin, 120 h, read-out: MIC Mtb H37Ra
[10] = Mycobacterium tuberculosis, calculated from MIC (µg/mL) and MW, read-out: MIC Mtb H37Ra
[11] = read-out: HepG2 IC50, MTT, 24 h incubation
[12] = microdilution broth, resazurin, 120 h
[13] = Mycobacterium tuberculosis, 120 h, read-out: MIC Mtb H37Ra, microdilution broth, resazurin, 120 h
[14] = Mycobacterium tuberculosis, read-out: MIC Mtb H37Ra (µM), calculated from MIC (µg/mL) and MW

Compound: COc1ccc2cc3[n+](cc2c1OCc1ccccc1)CCc1cc2c(cc1-3)OCO2 [16a, 9-O-benzylberberine chloride]
- MIC [1]: 6.25 µg/mL
- MIC [2]: 0.78 µg/mL
- viability at 1 µM ([3]; 1. measurement): 93.4%
- viability at 5 µM ([3]; 1. measurement): 81.9%
- viability at 10 µM ([3]; 1. measurement): 68.9%
- viability at 20 µM ([3]; 1. measurement, HepG2, 20 µM): 59.4%
- viability at 40 µM ([3]; 1. measurement, HepG2, 40 µM): 56.2%
- viability at 60 µM ([3]; 1. measurement, HepG2, 60 µM): 41.5%
- viability at 80 µM ([3]; 1. measurement, HepG2, 80 µM): 20.2%
- viability at 100 µM ([3]; 1. measurement): 8.76%
- viability at 1 µM ([3]; 2. measurement): 87.9%
- viability at 5 µM ([3]; 2. measurement): 73%
- viability at 10 µM ([3]; 2. measurement): 59.2%
- viability at 25 µM ([3]; 2. measurement): 48.9%
- viability at 50 µM ([3]; 2. measurement): 42.1%
- viability at 75 µM ([3]; 2. measurement): 31.1%
- viability at 100 µM ([3]; 2. measurement): 16.6%
- viability at 1 µM ([3]; 3. measurement): 96.4%
- viability at 5 µM ([3]; 3. measurement): 76.4%
- viability at 10 µM ([3]; 3. measurement): 60.7%
- viability at 25 µM ([3]; 3. measurement): 50.3%
- viability at 50 µM ([3]; 3. measurement): 44.9%
- viability at 75 µM ([3]; 3. measurement): 29.6%
- viability at 100 µM ([3]; 3. measurement): 15.3%
- MIC [4, 9]: 6.25 µg/mL
- MIC [4, 10]: 13.9 µM
- SI (selectivity index) [5]: 1.76
- IC50 ([6]; read-out: HepG2 IC50, 1. measurement, MTT, 24 h, single measurement 1): 29.1 µM
- IC50 ([6]; read-out: HepG2 IC50, 2. measurement, MTT, 24 h, single measurement 2): 20.8 µM
- IC50 ([6]; read-out: HepG2 IC50, 3. measurement, MTT, 24 h, single measurement 3): 23.5 µM
- IC50 [6, 11]: 24.5 ± 4.25 µM
- MIC [7]: 3.12 µg/mL
- MIC [8]: 3.12 µg/mL

Compound: O=C(O)c1cn(C2CC2)c2cc(N3CCNCC3)c(F)cc2c1=O [ciprofloxacin, reference compound]
- MIC [1]: 0.25 µg/mL (≈ 0.754 µM)
- MIC [2]: 0.0625 to 0.125 µg/mL (≈ 0.189 to 0.377 µM)
- MIC M. smegmatis [2]: 0.0625 µg/mL (≈ 0.189 µM)
- MIC [4, 9]: 0.125 to 0.25 µg/mL
- MIC [4, 10]: 0.75 µM
- MIC Mtb H37Ra [4, 12]: 0.25 µg/mL (≈ 0.754 µM)
- MIC M. aurum [7]: 0.01562 µg/mL (≈ 0.0471 µM)
- MIC M. aurum ([7]; listed as CPX): 0.0078 to 0.0156 µg/mL
- MIC [8]: 0.5 µg/mL (≈ 1.51 µM)

Compound: CN1Cc2c(ccc3c2OCO3)-c2ccc3cc4c(cc3c21)OCO4 [compound 1, dihydrosanguinarine]
- MIC [1]: 125 µg/mL (≈ 375 µM)
- MIC [2]: ≥ 500 µg/mL
- MIC [4, 9]: ≥ 500 µg/mL
- MIC [4, 10]: ≥ 1500 µM
- MIC [7]: ≥ 500 µg/mL
- MIC [8]: ≥ 500 µg/mL

Compound: COc1ccc2c(c1OC)CN(C)c1c-2ccc2cc3c(cc12)OCO3 [compound 2, dihydrochelerythrine]
- MIC [1]: 250 µg/mL (≈ 716 µM)
- MIC [2]: ≥ 500 µg/mL
- MIC [4, 9]: 250 µg/mL
- MIC [4, 10]: 716 µM
- MIC [7]: 250 µg/mL (≈ 716 µM)
- MIC [8]: 62.5 µg/mL (≈ 179 µM)

Compound: c1cc2c(c3c1C[C@H]1c4cc5c(cc4CCN1C3)OCO5)OCO2 [compound 4, stylopine]
- MIC [1]: ≥ 125 µg/mL
- MIC [2]: ≥ 125 µg/mL
- MIC [4, 9]: ≥ 125 µg/mL
- MIC [4, 10]: ≥ 387 µM
- MIC [7]: ≥ 125 µg/mL
- MIC [8]: ≥ 125 µg/mL

Compound: COc1ccc2c(c1OC)CN(C)CCc1cc3c(cc1C(=O)C2)OCO3 [compound 7, allocryptopine]
- MIC [1]: 250 µg/mL (≈ 677 µM)
- MIC [2]: ≥ 250 µg/mL
- MIC [4, 9]: ≥ 250 µg/mL
- MIC [4, 10]: ≥ 678 µM
- MIC [7]: ≥ 250 µg/mL
- MIC [8]: ≥ 250 µg/mL

Compound: COc1cc2c(cc1OC)C(=O)Cc1ccc3c(c1CN(C)CC2)OCO3 [compound 8, cryptopine]
- MIC [1]: ≥ 125 µg/mL
- MIC [2]: ≥ 125 µg/mL
- MIC [4, 9]: ≥ 125 µg/mL
- MIC [4, 10]: ≥ 339 µM
- MIC [7]: ≥ 125 µg/mL
- MIC [8]: ≥ 125 µg/mL

Compound: COc1ccc2c(c1O)-c1c(OC)c(OC)cc3c1[C@H](C2)N(C)CC3 [compound 10, isocorydine]
- MIC [1]: 125 µg/mL (≈ 366 µM)
- MIC [2]: ≥ 500 µg/mL
- MIC [4, 9]: ≥ 500 µg/mL
- MIC [4, 10]: ≥ 1430 µM
- MIC [7]: ≥ 500 µg/mL
- MIC [8]: ≥ 500 µg/mL

Compound: COc1cc2c(cc1OC)-c1c(OC)c(OC)cc3c1[C@H](C2)N(C)CC3 [compound 11, glaucine]
- MIC [1]: 62.5 µg/mL (≈ 176 µM)
- MIC [2]: ≥ 250 µg/mL
- MIC [4, 13]: 125 µg/mL
- MIC [4, 14]: ≥ 352 µM
- MIC [7]: 125 µg/mL (≈ 352 µM)
- MIC [8]: 125 µg/mL (≈ 352 µM)

Compound: COc1cc2c3c(c1O)-c1c(ccc(OC)c1OC)C[C@@H]3N(C)CC2 [compound 12, corydine]
- MIC [1]: 250 µg/mL (≈ 732 µM)
- MIC [2]: ≥ 500 µg/mL
- MIC [4, 9]: ≥ 500 µg/mL
- MIC [4, 10]: ≥ 1470 µM
- MIC [7]: 250 µg/mL (≈ 732 µM)
- MIC [8]: 62.5 µg/mL (≈ 183 µM)

Compound: COc1cc2c(cc1O)[C@@H]1Cc3ccc(OC)c(OC)c3CN1CC2 [compound 13, isocorypalmine]
- MIC [1]: ≥ 250 µg/mL
- MIC [2]: ≥ 250 µg/mL
- MIC [4, 13]: ≥ 250 µg/mL
- MIC [4, 14]: ≥ 733 µM
- MIC [7]: ≥ 250 µg/mL
- MIC [8]: ≥ 250 µg/mL

Compound: COc1cc2c(cc1O)[C@@H]1Cc3ccc(OC)c(O)c3CN1CC2 [compound 15, scoulerine]
- MIC [1]: 15.6 µg/mL (≈ 47.7 µM)
- MIC [2]: 125 µg/mL (≈ 382 µM)
- MIC [4, 9]: 250 µg/mL
- MIC [4, 10]: 764 µM
- MIC [7]: 125 µg/mL (≈ 382 µM)
- MIC [8]: 250 µg/mL (≈ 764 µM)

Compound: COc1cccc2c1C(=O)c1c(O)c3c(c(O)c1C2=O)C[C@@](O)(C(=O)CO)C[C@@H]3O[C@H]1C[C@H](N)[C@H](O)[C@H](C)O1 [doxorubicine, reference compound]
- IC50 [6, 11]: 30.4 ± 1.74 µM

Compound: NNC(=O)c1ccncc1 [isoniazid, reference compound]
- MIC [1]: 3.12 to 6.25 µg/mL (≈ 22.8 to 45.6 µM)
- MIC M. kansasii ([1]; microdilution broth, resazurin): 6.25 µg/mL (≈ 45.6 µM)
- MIC [2]: 15.6 to 31.2 µg/mL (≈ 114 to 228 µM)
- MIC M. smegmatis [2]: 31.25 µg/mL (≈ 228 µM)
- MIC [4, 9]: 0.125 to 0.25 µg/mL
- MIC [4, 10]: 1.82 µM
- MIC Mtb H37Ra [4, 12]: 0.25 µg/mL (≈ 1.82 µM)
- MIC M. aurum [7]: 3.91 µg/mL (≈ 28.5 µM)
- MIC M. aurum ([7]; listed as INH): 1.95 to 3.91 µg/mL
- MIC [8]: 500 to 1000 µg/mL (≈ 3650 to 7290 µM)
- MIC M. avium [8]: 500 µg/mL (≈ 3650 µM)

Compound: CO[C@H]1/C=C/O[C@@]2(C)Oc3c(C)c(O)c4c(O)c(c(/C=N/N5CCN(C)CC5)c(O)c4c3C2=O)NC(=O)/C(C)=C\C=C\[C@H](C)[C@H](O)[C@@H](C)[C@@H](O)[C@@H](C)[C@H](OC(C)=O)[C@@H]1C [rifampicin, reference compound]
- MIC [4, 14]: 0.0075 µM
- MIC Mtb H37Ra ([4]; microdilution broth, resazurin, 120 h, listed as RIF): 0.00156 to 0.0031 µg/mL
- MIC [7]: 0.39 to 0.78 µg/mL (≈ 0.474 to 0.948 µM)
- MIC M. aurum [7]: 0.39 µg/mL (≈ 0.474 µM)

Compound: protopine [compound 6]
- MIC M. smegmatis [2]: ≥500 µg/mL
- MIC ([4]; calculated from MIC (µg/mL) and MW, read-out: MIC Mtb H37Ra): ≥1416 µM
- MIC Mtb H37Ra [4, 12]: ≥500 µg/mL
- MIC M. aurum [7]: ≥500 µg/mL
- MIC M. avium [8]: 250 µg/mL
